Source: ChEMBL document CHEMBL1909564, “A modular approach to trim cellular targets in anticancer drug discovery” (Bioorg Med Chem Lett, 2011)
The source made the active and inactive calls. No cut-off for these calls is given here.

Legend:
HeLa [1] = experiment: Cell cycle arrest in human HeLa cells assessed as decrease in cells at S phase at 7 to 21 uM after 24 hrs by flow cytometry; type: functional, cell-based
HBL-100 [2] = experiment: Cell cycle arrest in human HBL100 cells assessed as decrease in cells at G1 phase at 7 to 21 uM after 24 hrs by flow cytometry; type: functional, cell-based
WiDr [3] = experiment: Cell cycle arrest in human WiDr cells assessed as accumulation at G2/M phase after 24 hrs by flow cytometry; type: functional, cell-based
WiDr [4] = experiment: Cell cycle arrest in human WiDr cells assessed as decrease in cells at S phase at 7 to 21 uM after 24 hrs by flow cytometry; type: functional, cell-based
HBL-100 [5] = experiment: Cell cycle arrest in human HBL100 cells assessed as accumulation at G2/M phase after 24 hrs by flow cytometry; type: functional, cell-based
SW1573 [6] = experiment: Cell cycle arrest in human SW1573 cells assessed as accumulation at G2/M phase after 24 hrs by flow cytometry; type: functional, cell-based
HeLa [7] = experiment: Cell cycle arrest in human HeLa cells assessed as decrease in cells at G1 phase at 7 to 21 uM after 24 hrs by flow cytometry; type: functional, cell-based
Ishikawa = experiment: Growth inhibition of human Ishikawa cells; type: functional
SW1573 [8] = experiment: Induction of apoptosis in human SW1573 cells assessed as increase in sub-G1 DNA content at 7 to 21 uM after 24 hrs by flow cytometry; type: functional
HeLa [9] = experiment: Cell cycle arrest in human HeLa cells assessed as decrease in phosphorylated RB protein at 7 to 21 uM after 24 hrs by Western blot analysis; type: functional, cell-based
T47D [10] = experiment: Cell cycle arrest in human T47D cells assessed as decrease in cells at G1 phase at 7 to 21 uM after 24 hrs by flow cytometry; type: functional, cell-based
A2780 = experiment: Growth inhibition of human A2780 cells; type: functional
WiDr [11] = experiment: Growth inhibition of human WiDr cells; type: functional
T47D [12] = experiment: Growth inhibition of human T47D cells; type: functional
HeLa [13] = experiment: Growth inhibition of human HeLa cells; type: functional
SW1573 [14] = experiment: Growth inhibition of human SW1573 cells; type: functional
HBL-100 [15] = experiment: Growth inhibition of human HBL100 cells; type: functional
HBL-100 [16] = experiment: Induction of apoptosis in human HBL100 cells assessed as increase in sub-G1 DNA content at 7 to 21 uM after 24 hrs by flow cytometry; type: functional
T47D [17] = experiment: Induction of apoptosis in human T47D cells assessed as increase in sub-G1 DNA content at 7 to 21 uM after 24 hrs by flow cytometry; type: functional
SW1573 [18] = experiment: Cell cycle arrest in human SW1573 cells assessed as decrease in cells at G1 phase at 7 to 21 uM after 24 hrs by flow cytometry; type: functional, cell-based
HeLa [19] = experiment: Cell cycle arrest in human HeLa cells assessed as effect on cyclin B1 protein at 7 to 21 uM after 24 hrs by Western blot analysis; type: functional, cell-based
HeLa [20] = experiment: Cell cycle arrest in human HeLa cells assessed as increase in level of phosphorylated histone H3 at ser10 at 7 to 21 uM after 24 hrs by Western blot analysis; type: functional, cell-based
HeLa [21] = experiment: Induction of apoptosis in human HeLa cells assessed as PARP cleavage at 7 to 21 uM after 24 hrs by immunoblotting; type: functional, cell-based
T47D [22] = experiment: Cell cycle arrest in human T47D cells assessed as decrease in cells at S phase at 7 to 21 uM after 24 hrs by flow cytometry; type: functional, cell-based
HeLa [23] = experiment: Cell cycle arrest in human HeLa cells assessed as increase in phosphorylated BubR1 level at 7 to 21 uM after 24 hrs by Western blot analysis; type: functional, cell-based
HeLa [24] = experiment: Induction of apoptosis in human HeLa cells assessed as increase in sub-G1 DNA content at 7 to 21 uM after 24 hrs by flow cytometry; type: functional
WiDr [25] = experiment: Cell cycle arrest in human WiDr cells assessed as decrease in cells at G1 phase at 7 to 21 uM after 24 hrs by flow cytometry; type: functional, cell-based
HBL-100 [26] = experiment: Cell cycle arrest in human HBL100 cells assessed as decrease in cells at S phase at 7 to 21 uM after 24 hrs by flow cytometry; type: functional, cell-based
T47D [27] = experiment: Cell cycle arrest in human T47D cells assessed as accumulation at G2/M phase after 24 hrs by flow cytometry; type: functional, cell-based
WiDr [28] = experiment: Induction of apoptosis in human WiDr cells assessed as increase in sub-G1 DNA content at 7 to 21 uM after 24 hrs by flow cytometry; type: functional
HeLa [29] = experiment: Cell cycle arrest in human HeLa cells assessed as phosphorylated histone H3 at ser10 at 21 uM after 24 hrs by flow cytometry (reference value: […]); type: functional
SW1573 [30] = experiment: Cell cycle arrest in human SW1573 cells assessed as decrease in cells at S phase at 7 to 21 uM after 24 hrs by flow cytometry; type: functional, cell-based
HeLa [31] = experiment: Cell cycle arrest in human HeLa cells assessed as accumulation at G2/M phase after 24 hrs by flow cytometry; type: functional, cell-based

Q: Which Activity (HeLa [1]) does the source give for `CNc1ncnc(NCCc2ccccc2)c1N=O` here?
A: Active

Q: What about the Activity (HBL-100 [2]) of the same compound?
A: Active

Q: And the Activity (WiDr [3])?
A: Dose-dependent effect

Q: What about the Activity (WiDr [4]) of the same compound?
A: Active

Q: And the Activity (HBL-100 [5])?
A: Dose-dependent effect

Q: And the Activity (SW1573 [6])?
A: Dose-dependent effect

Q: What about the Activity (HeLa [7]) of the same compound?
A: Active

Q: What about the GI50 (Ishikawa) of the same compound?
A: 3.8 µM

Q: And the Activity (SW1573 [8])?
A: <8.5%

Q: What about the Activity (HeLa [9]) of the same compound?
A: Active

Q: What about the Activity (T47D [10]) of the same compound?
A: Active

Q: And the GI50 (A2780)?
A: 3.4 µM

Q: And the GI50 (WiDr [11])?
A: 7.2 µM

Q: What about the GI50 (T47D [12]) of the same compound?
A: 7 µM

Q: What about the GI50 (HeLa [13]) of the same compound?
A: 4.5 µM

Q: And the GI50 (SW1573 [14])?
A: 3.2 µM

Q: What about the GI50 (HBL-100 [15]) of the same compound?
A: 3.6 µM

Q: What about the Activity (HBL-100 [16]) of the same compound?
A: <8.5%

Q: What about the Activity (T47D [17]) of the same compound?
A: <8.5%

Q: And the Activity (SW1573 [18])?
A: Active

Q: And the Activity (HeLa [19])?
A: inactive

Q: What about the Activity (HeLa [20]) of the same compound?
A: Active

Q: What about the Activity (HeLa [21]) of the same compound?
A: inactive

Q: And the Activity (T47D [22])?
A: Active

Q: What about the Activity (HeLa [23]) of the same compound?
A: Active

Q: And the Activity (HeLa [24])?
A: <8.5%

Q: What about the Activity (WiDr [25]) of the same compound?
A: Active

Q: What about the Activity (HBL-100 [26]) of the same compound?
A: Active

Q: What about the Activity (T47D [27]) of the same compound?
A: Dose-dependent effect

Q: And the Activity (WiDr [28])?
A: <8.5%

Q: What about the Activity (HeLa [29]) of the same compound?
A: 15.1%

Q: What about the Activity (SW1573 [30]) of the same compound?
A: Active

Q: What about the Activity (HeLa [31]) of the same compound?
A: Dose-dependent effect

Q: Which GI50 (Ishikawa) does the source give for `Cn1c(=O)c(=O)n(O)c2c(NCCN3CCOCC3)ncnc21` here?
A: > 100 µM

Q: What about the GI50 (A2780) of the same compound?
A: > 100 µM

Q: And the GI50 (WiDr [11])?
A: > 100 µM

Q: What about the GI50 (T47D [12]) of the same compound?
A: > 100 µM

Q: What about the GI50 (HeLa [13]) of the same compound?
A: > 100 µM

Q: What about the GI50 (SW1573 [14]) of the same compound?
A: > 100 µM

Q: And the GI50 (HBL-100 [15])?
A: > 100 µM

Q: With `COc1cc([C@@H]2c3cc4c(cc3[C@@H](O[C@@H]3O[C@@H]5CO[C@@H](C)O[C@H]5[C@H](O)[C@H]3O)[C@H]3COC(=O)[C@H]23)OCO4)cc(OC)c1O` [ETOPOSIDE] as the compound, how does the GI50 (Ishikawa) read?
A: 11 µM

Q: And the GI50 (WiDr [11])?
A: 23 µM

Q: What about the GI50 (T47D [12]) of the same compound?
A: 22 µM

Q: What about the GI50 (HeLa [13]) of the same compound?
A: 3 µM

Q: And the GI50 (SW1573 [14])?
A: 15 µM

Q: And the GI50 (HBL-100 [15])?
A: 2.3 µM

Q: Which GI50 (A2780) does the source give for `CC(=O)O[C@H]1C(=O)[C@@]2(C)[C@H]([C@H](OC(=O)c3ccccc3)[C@]3(O)C[C@H](OC(=O)[C@H](O)[C@@H](NC(=O)c4ccccc4)c4ccccc4)C(C)=C1C3(C)C)[C@]1(OC(C)=O)CO[C@@H]1C[C@@H]2O` [PACLITAXEL] here?
A: 0.00027 µM

Q: And the GI50 (WiDr [11])?
A: 0.00022 µM

Q: And the GI50 (T47D [12])?
A: 0.00015 µM

Q: What about the GI50 (SW1573 [14]) of the same compound?
A: 0.005 µM

Q: And the GI50 (HBL-100 [15])?
A: 1.7e-05 µM

Q: `Cn1c(=O)c(=O)n(O)c2c(NCCc3ccccc3)ncnc21` was tested. Which GI50 (Ishikawa) did it give?
A: > 100 µM

Q: And the GI50 (A2780)?
A: > 100 µM

Q: What about the GI50 (WiDr [11]) of the same compound?
A: > 100 µM

Q: What about the GI50 (T47D [12]) of the same compound?
A: > 100 µM

Q: And the GI50 (HeLa [13])?
A: > 100 µM

Q: And the GI50 (SW1573 [14])?
A: 59 µM

Q: What about the GI50 (HBL-100 [15]) of the same compound?
A: 54 µM

Q: Which GI50 (Ishikawa) does the source give for `CSc1nc(N)c(N=O)c(NCCc2ccccc2)n1` here?
A: > 100 µM

Q: And the GI50 (A2780)?
A: > 100 µM

Q: And the GI50 (WiDr [11])?
A: > 100 µM

Q: What about the GI50 (T47D [12]) of the same compound?
A: > 100 µM

Q: What about the GI50 (HeLa [13]) of the same compound?
A: 27 µM

Q: What about the GI50 (SW1573 [14]) of the same compound?
A: 37 µM

Q: And the GI50 (HBL-100 [15])?
A: 12 µM
